Target: T1, hENaC channel (Homo sapiens, UniProt P37088+P51168+P51170, A314G/A350T/D375G/F339S/S458R/Y369S)
T1 sequence (P37088 1-669): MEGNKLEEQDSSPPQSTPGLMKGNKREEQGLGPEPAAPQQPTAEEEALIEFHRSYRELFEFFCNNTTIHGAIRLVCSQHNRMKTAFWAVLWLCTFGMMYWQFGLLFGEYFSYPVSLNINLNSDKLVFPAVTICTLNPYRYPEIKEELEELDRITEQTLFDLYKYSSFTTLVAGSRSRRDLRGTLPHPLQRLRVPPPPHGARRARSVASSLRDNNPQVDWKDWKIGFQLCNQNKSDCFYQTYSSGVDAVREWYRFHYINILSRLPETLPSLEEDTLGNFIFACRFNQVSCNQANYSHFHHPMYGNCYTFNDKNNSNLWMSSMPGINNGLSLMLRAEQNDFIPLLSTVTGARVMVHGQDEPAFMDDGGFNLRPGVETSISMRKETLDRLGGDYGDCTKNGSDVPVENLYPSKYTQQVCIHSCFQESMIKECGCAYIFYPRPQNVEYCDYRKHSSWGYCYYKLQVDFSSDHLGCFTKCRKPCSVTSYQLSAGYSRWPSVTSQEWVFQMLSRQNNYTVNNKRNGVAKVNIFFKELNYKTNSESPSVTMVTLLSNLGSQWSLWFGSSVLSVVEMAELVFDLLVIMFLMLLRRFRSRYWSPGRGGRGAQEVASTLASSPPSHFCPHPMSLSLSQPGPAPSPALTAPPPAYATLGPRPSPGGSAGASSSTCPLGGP
T1 sequence (P51168 1-640 A314G): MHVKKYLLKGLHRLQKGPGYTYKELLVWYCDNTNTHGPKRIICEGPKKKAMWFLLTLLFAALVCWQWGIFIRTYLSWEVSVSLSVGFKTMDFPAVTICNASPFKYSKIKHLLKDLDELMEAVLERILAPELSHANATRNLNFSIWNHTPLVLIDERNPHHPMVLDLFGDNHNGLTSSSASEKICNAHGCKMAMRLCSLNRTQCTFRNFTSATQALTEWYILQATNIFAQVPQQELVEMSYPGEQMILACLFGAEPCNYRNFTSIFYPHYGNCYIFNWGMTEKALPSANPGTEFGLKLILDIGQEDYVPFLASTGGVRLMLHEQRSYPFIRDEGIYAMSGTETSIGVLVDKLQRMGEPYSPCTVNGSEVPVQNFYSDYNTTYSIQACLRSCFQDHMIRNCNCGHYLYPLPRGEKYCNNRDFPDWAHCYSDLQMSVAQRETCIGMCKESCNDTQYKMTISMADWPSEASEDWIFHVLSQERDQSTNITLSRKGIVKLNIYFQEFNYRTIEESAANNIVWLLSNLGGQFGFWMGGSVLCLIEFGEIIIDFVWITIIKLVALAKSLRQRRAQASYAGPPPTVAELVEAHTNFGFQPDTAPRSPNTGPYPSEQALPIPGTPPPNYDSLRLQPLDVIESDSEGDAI
T1 sequence (P51170 1-649 F339S/A350T/Y369S/D375G/S458R): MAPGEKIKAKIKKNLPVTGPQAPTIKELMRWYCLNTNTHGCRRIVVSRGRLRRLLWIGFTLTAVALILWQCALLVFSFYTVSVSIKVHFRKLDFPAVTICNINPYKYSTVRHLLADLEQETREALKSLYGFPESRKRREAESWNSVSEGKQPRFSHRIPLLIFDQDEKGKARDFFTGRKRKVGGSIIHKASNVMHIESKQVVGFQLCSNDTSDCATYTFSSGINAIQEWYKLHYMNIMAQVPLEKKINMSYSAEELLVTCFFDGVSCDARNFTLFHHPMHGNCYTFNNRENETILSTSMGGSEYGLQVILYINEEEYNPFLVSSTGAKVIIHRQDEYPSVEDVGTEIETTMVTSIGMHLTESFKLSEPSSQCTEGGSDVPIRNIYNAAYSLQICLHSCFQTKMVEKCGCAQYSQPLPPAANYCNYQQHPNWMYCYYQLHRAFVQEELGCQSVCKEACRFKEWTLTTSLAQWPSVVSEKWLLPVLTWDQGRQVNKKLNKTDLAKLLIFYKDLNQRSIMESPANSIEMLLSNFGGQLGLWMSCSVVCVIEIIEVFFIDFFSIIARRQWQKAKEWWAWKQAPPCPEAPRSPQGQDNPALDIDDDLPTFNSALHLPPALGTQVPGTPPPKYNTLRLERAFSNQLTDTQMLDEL
Assay: Primary screen MP assay (membrane potential dye): dose-response curves for inhibition by hENaC blockers
Format: cell-based
Conditions: HEK293 Flp-In T-Rex hENaC cells (alpha, beta, gamma; pUR8191), loaded with MP-Blue dye for 1 hr, Flexstation; FIG. 4
Method: FIG. 4. Dose-response curve for different concentrations of the hENaC blockers amiloride, benzamil and phenamil (in M). Cells were loaded with MP-Blue dye for 1 hr and assayed in the Flexstation.
HEK293 Flp-In T-Rex hENaC cells were grown to about 80% confluency and dissociated from the culture dish with trypsin/EDTA for 1-5 minutes at 37° C. Dissociated cells were taken up in a concentration between 1×10^5 and 1×10^6 cells/ml in DMEM/Tet-free FCS/blasticidin/hygromycin medium. 100 μL of cells were added per well in a poly-L-lysine coated black well clear bottom 96-wells plate. The cells were grown overnight and then induced by addition of 100 μl DMEM/Tet-free FCS/blasticidin/hygromycin medium with doxycyclin (final conc. 0.25 μg/ml). Alternatively, in some wells amiloride was added to inhibit hENaC channel activity during induction.
After 20 to 48 hrs the medium was removed, cells were washed with buffer and subsequently loaded with MP-Blue (cat# R8042) or MP-Red (cat# R8123) dye (from Molecular Devices) according to the manufacturer's instructions for 1 hr at 37° C. The plates were subsequently loaded into the Flexstation II for fluorescence measurements. Compounds were added to the wells in different concentrations after a baseline measurement of 30 sec. […] The fluorescence values were normalized on the average value of the first five time points. […]

SMILES | inhibition of the hENaC channel (rank order from dose-response curves)
N=C(N)NC(=O)c1nc(Cl)c(N)nc1N [amiloride] | followed by benzamil and amiloride
NC(=Nc1ccccc1)NC(=O)c1nc(Cl)c(N)nc1N [phenamil] | the best compound for inhibition
